Laboratory results published in patent EP0555116B1, “Compositions based on antiseptics and their applications” (HUTCHINSON, priority 1992, dated 1993).

System: virus HIV1
Assay: Infectivity of HIV1 for normal human T lymphocytes after 10 min treatment of the virus; reverse transcriptase activity (ATI) in culture supernatants
Type: cell-based
Details: for action virucide: produit utilisé seul, 0,002
Procedure: Pour l'étude du pouvoir infectieux résiduel après traitement des préparations virales, le milieu de culture des lymphocytes T humains normaux (milieu complet) correspond au milieu ci-dessus auquel sont ajoutés 10 % d'interleukine II, du polybrène (2 µg/ml) et du sérum anti-interféron humain 1/2500 (M.A. REY et al., Biochem. Biophys. Res. Com., 1984, 121, 126-133).
L'infectivité est étudiée sur des lymphocytes T obtenus à partir du sang périphérique d'un donneur humain sain, et séparés sur un gradient de Ficoll.
Les lymphocytes sont stimulés pendant 3 jours par de la phytohémagglutinine P (PHA-P), diluée au 1/500 et cultivés dans du milieu complet. Les cellules T blastiques sont infectées par le virus, traité ou non, pour mettre en évidence le pouvoir infectieux résiduel.
Le virus est obtenu à partir d'un surnageant de culture de la lignée CEM infectée par HIV1. Cette lignée T lymphoblastoïde infectée par HIV1 est utilisée pour la production virale.
Le titre des surnageants utilisés est évalué après dosage de l'activité transcriptase inverse (ATI) du virus.
Dans les essais qui suivent, on a utilisé un surnageant dont l'ATI est de 1,8.10^6 cpm/ml. 2. Méthodes :
• Préparation de la solution virale : plusieurs tubes contenant 1 ml de surnageant viral, ATI 1,8.10^6 cmp/ml sont concentrés par ultracentrifugation. Les culots de virus ainsi obtenus sont repris soit par chacune des dilutions de produit réalisées dans de l'eau bidistillée stérile, soit par de l'eau (virus témoin non traité). • Traitement des préparations virales : les préparations virales concentrées sont toutes traitées selon le protocole indiqué ci-dessous : • . échantillons viraux traités : les culots de virus concentrés par ultracentrifugation sont resuspendus dans 100 µl de chacune des concentrations en produits étudiés et incubés pendant 10 minutes. • . échantillon viral témoin : témoin virus non traité : le produit est remplacé par 100 µl d'eau bidistillée stérile. A la suite de ce temps d'incubation de 10 minutes, le virus présent dans chaque échantillon est rincé puis reconcentré par addition de 12 ml de milieu RPMI 1640 et ultracentrifugation. Les culots de virus sont alors repris dans 1 ml de milieu complet et utilisés pour l'infection de lymphocytes T humains normaux. • Mesure de l'infectivité des échantillons : 4.10^6 lymphocytes T humains normaux sont infectés avec chacune des préparations virales traitées ou témoins indiquées ci-dessus. L'infection des cellules T est réalisée selon une méthode précédemment décrite (F. BARRE-SINOUSSI et al., Science, 1983, 220, 868-871) : en résumé 4.10^6 cellules en suspension dans 1 ml de milieu complet sont incubées avec 1 ml de chacune des préparations virales traitées ou témoins pendant 1 heure à 37°C. Après 2 lavages par plusieurs ml de milieu de culture, les suspensions cellulaires sont ajustées à la concentration de 1.10^6 cellules par ml. Le jour de l'infection est considéré comme jour 0. • . Cellules témoin : 4.10^6 lymphocytes T sont cultivés et passés tous les 3 ou 4 jours dans les mêmes conditions que tous les autres échantillons. Ce témoin correspond au témoin négatif de la production virale au cours de la manipulation. La production virale au cours du temps est déterminée en mesurant l'activité transcriptase inverse présente dans les surnageants de culture selon le protocole décrit ci-dessous. • . Mesure de l'activité transcriptase inverse des préparations virales témoins et des échantillons viraux traités par les produits : ce dosage permet d'évaluer la présence de virus résiduel non inactivé dans l'échantillon de départ. Il est réalisé à partir de 1 ml de surnageant de culture, prélevé tous les 3 ou 4 jours et ultracentrifugé.
Les activités enzymatiques sont mesurées dans 50 µl d'un mélange réactionnel contenant 50 mM Tris pH 7,8, 20 mM MgCl2, 20 mM KCl, 2 mM dithiotréitol, 0,25 OD/ml oligo dT, 0,25 OD/ml poly rA, 0,1 % Triton X 100 et 2,5 µCi 3H DTTP. […]

CCCCCCCCCC[N+](C)(C)CCCCCCCCCC [Bardac®, chlorure de didécyldiméthylammonium] was tested, and the “ATI dans les surnageants” value (Bardac® 0,01 %, J3) was 334 cpm/ml, the “ATI dans les surnageants” value (Bardac® 0,01 %, J6) was 222 cpm/ml and the “ATI dans les surnageants” value (Bardac® 0,01 %, J10) was 1768 cpm/ml. For the same compound, the “ATI dans les surnageants” value (Bardac® 0,01 %, J13) was 1592 cpm/ml, the “ATI dans les surnageants” value (Bardac® 0,01 %, J17) was 190 cpm/ml and the “ATI dans les surnageants” value (Bardac® 0,01 %, J20) was 390 cpm/ml. The “ATI dans les surnageants” value (Bardac® 0,01 %, J23) was 1328 cpm/ml, the “ATI dans les surnageants” value (Bardac® 0,01 %, J27) was 780 cpm/ml and the “ATI dans les surnageants” value (Bardac® 0,01 %, J30) was 1000 cpm/ml. The “ATI dans les surnageants” value (Bardac® 0,0004 %, J3) was 702 cpm/ml, the “ATI dans les surnageants” value (Bardac® 0,0004 %, J6) was 18136 cpm/ml and the “ATI dans les surnageants” value (Bardac® 0,0004 %, J10) was 117326 cpm/ml. For the same compound, the “ATI dans les surnageants” value (Bardac® 0,0004 %, J13) was 74214 cpm/ml, the “ATI dans les surnageants” value (Bardac® 0,0004 %, J17) was 50674 cpm/ml and the “ATI dans les surnageants” value (Bardac® 0,0004 %, J20) was 22478 cpm/ml. For the same compound, the “ATI dans les surnageants” value (Bardac® 0,0004 %, J23) was 13806 cpm/ml, the “ATI dans les surnageants” value (Bardac® 0,0004 %, J27) was 7800 cpm/ml and the “ATI dans les surnageants” value (Bardac® 0,0004 %, J30) was 4426 cpm/ml. The “ATI dans les surnageants” value (Bardac® 0,002 %, J3) was 464 cpm/ml, the “ATI dans les surnageants” value (Bardac® 0,002 %, J6) was 2472 cpm/ml and the “ATI dans les surnageants” value (Bardac® 0,002 %, J10) was 16066 cpm/ml. For the same compound, the “ATI dans les surnageants” value (Bardac® 0,002 %, J13) was 24902 cpm/ml, the “ATI dans les surnageants” value (Bardac® 0,002 %, J17) was 77754 cpm/ml and the “ATI dans les surnageants” value (Bardac® 0,002 %, J20) was 75554 cpm/ml. The “ATI dans les surnageants” value (Bardac® 0,002 %, J23) was 101394 cpm/ml, the “ATI dans les surnageants” value (Bardac® 0,002 %, J27) was 80560 cpm/ml and the “ATI dans les surnageants” value (Bardac® 0,002 %, J30) was 64692 cpm/ml. The “ATI dans les surnageants” value (Bardac® 0,004 %, J3) was 346 cpm/ml, the “ATI dans les surnageants” value (Bardac® 0,004 %, J6) was 298 cpm/ml and the “ATI dans les surnageants” value (Bardac® 0,004 %, J10) was 160 cpm/ml. For the same compound, the “ATI dans les surnageants” value (Bardac® 0,004 %, J13) was 170 cpm/ml, the “ATI dans les surnageants” value (Bardac® 0,004 %, J17) was 350 cpm/ml and the “ATI dans les surnageants” value (Bardac® 0,004 %, J20) was 218 cpm/ml. For the same compound, the “ATI dans les surnageants” value (Bardac® 0,004 %, J23) was 444 cpm/ml, the “ATI dans les surnageants” value (Bardac® 0,004 %, J27) was 244 cpm/ml and the “ATI dans les surnageants” value (Bardac® 0,004 %, J30) was 264 cpm/ml. For the same compound, the “ATI dans les surnageants” value (Bardac® 0,006 %, J3) was 320 cpm/ml, the “ATI dans les surnageants” value (Bardac® 0,006 %, J6) was 326 cpm/ml and the “ATI dans les surnageants” value (Bardac® 0,006 %, J10) was 204 cpm/ml. The “ATI dans les surnageants” value (Bardac® 0,006 %, J13) was 248 cpm/ml, the “ATI dans les surnageants” value (Bardac® 0,006 %, J17) was 364 cpm/ml and the “ATI dans les surnageants” value (Bardac® 0,006 %, J20) was 180 cpm/ml. For the same compound, the “ATI dans les surnageants” value (Bardac® 0,006 %, J23) was 328 cpm/ml, the “ATI dans les surnageants” value (Bardac® 0,006 %, J27) was 588 cpm/ml and the “ATI dans les surnageants” value (Bardac® 0,006 %, J30) was 196 cpm/ml. The action virucide was “ne sont pas virucides”.
For [H]/N=C(\N/C(=N/[H])NCCCCCCNC(=N)NC(=N)Nc1ccc(Cl)cc1)Nc1ccc(Cl)cc1 [Chlorhexidine, digluconate de chlorhexidine, reference compound], the “ATI dans les surnageants” value (Chlorhexidine 0,01 %, J3) was 262 cpm/ml, the “ATI dans les surnageants” value (Chlorhexidine 0,01 %, J6) was 274 cpm/ml and the “ATI dans les surnageants” value (Chlorhexidine 0,01 %, J10) was 200 cpm/ml. The “ATI dans les surnageants” value (Chlorhexidine 0,01 %, J13) was 250 cpm/ml, the “ATI dans les surnageants” value (Chlorhexidine 0,01 %, J17) was 230 cpm/ml and the “ATI dans les surnageants” value (Chlorhexidine 0,01 %, J20) was 272 cpm/ml. The “ATI dans les surnageants” value (Chlorhexidine 0,01 %, J23) was 456 cpm/ml, the “ATI dans les surnageants” value (Chlorhexidine 0,01 %, J27) was 420 cpm/ml and the “ATI dans les surnageants” value (Chlorhexidine 0,01 %, J30) was 276 cpm/ml. The “ATI dans les surnageants” value (Chlorhexidine 0,002 %, J3) was 252 cpm/ml, the “ATI dans les surnageants” value (Chlorhexidine 0,002 %, J6) was 352 cpm/ml and the “ATI dans les surnageants” value (Chlorhexidine 0,002 %, J10) was 1304 cpm/ml. For the same compound, the “ATI dans les surnageants” value (Chlorhexidine 0,002 %, J13) was 1752 cpm/ml, the “ATI dans les surnageants” value (Chlorhexidine 0,002 %, J17) was 4288 cpm/ml and the “ATI dans les surnageants” value (Chlorhexidine 0,002 %, J20) was 6138 cpm/ml. For the same compound, the “ATI dans les surnageants” value (Chlorhexidine 0,002 %, J23) was 4614 cpm/ml, the “ATI dans les surnageants” value (Chlorhexidine 0,002 %, J27) was 1616 cpm/ml and the “ATI dans les surnageants” value (Chlorhexidine 0,002 %, J30) was 4528 cpm/ml. For the same compound, the “ATI dans les surnageants” value (Chlorhexidine 0,005 %, J3) was 360 cpm/ml, the “ATI dans les surnageants” value (Chlorhexidine 0,005 %, J6) was 374 cpm/ml and the “ATI dans les surnageants” value (Chlorhexidine 0,005 %, J10) was 580 cpm/ml. The “ATI dans les surnageants” value (Chlorhexidine 0,005 %, J13) was 742 cpm/ml, the “ATI dans les surnageants” value (Chlorhexidine 0,005 %, J17) was 1902 cpm/ml and the “ATI dans les surnageants” value (Chlorhexidine 0,005 %, J20) was 1126 cpm/ml. For the same compound, the “ATI dans les surnageants” value (Chlorhexidine 0,005 %, J23) was 1226 cpm/ml, the “ATI dans les surnageants” value (Chlorhexidine 0,005 %, J27) was 528 cpm/ml and the “ATI dans les surnageants” value (Chlorhexidine 0,005 %, J30) was 720 cpm/ml. For the same compound, the action virucide was “ne sont pas virucides”.
